Reference: patent US20250304537A1 (Repare Therapeutics Inc., priority 2022, published 2025)

Biological target: recombinant human Myt1 (full length PKMYT1) (Homo sapiens (Human), UniProt Q99640)
Assay: Recombinant human Myt1 kinase assay (ADP-Glo)
Type: biochemical
Conditions: 10 μM ATP
Protocol: Detection of Myt1 kinase activity utilized a recombinant human Myt1 kinase assay measuring the hydrolysis of ATP using a commercially available ADP-Glo Assay (ADP-Glo™ Kinase Assay from Promega, 10 000 assays, #V9102). Briefly, 5 μL recombinant human Myt1 (full length PKMYT1 recombinant human protein expressed in insect cells from Thermo Fisher #A33387; ˜80% purity) was prepared in reaction buffer (70 mM HEPES, 3 mM MgCl2, 3 mM MnCl2, 50 μg/ml PEG 20000, 3 μM Na-orthovanadate, 1.2 mM DTT) and added to 384 well white polystyrene, flat bottom well, non-treated, microplate (Corning #3572). After this, 5 μL of compounds (diluted in reaction buffer to 0.5% DMSO) was added to the microplate and the plate was spun briefly and incubated at 22° C. for 15 minutes. Ultra-Pure Adenosine Triphosphate (ATP) solution (ADP-Glo kit from Promega) was diluted in reaction buffer and 5 μL was added to the microplate, spun down briefly and incubated for 60 minutes at 30° C. The final Myt1 enzyme concentration was 18 nM and the final ATP concentration was 10 μM. After the 60-minute incubation, 15 μL of ADP-Glo reagent was added and the plate was spun briefly and sealed and incubated in the dark for 40 minutes at 22° C. Following this, 30 μL of kinase detection reagent was added per well and the plate was spun briefly, sealed and incubated for 45-60 minutes at 22° C. in the dark. Luminescence was read using the Envision (250 ms integration). The IC50 and the % max inhibition were calculated for each inhibitor compound tested.

recombinant human Myt1 (full length PKMYT1), sequence (Q99640 whole entry): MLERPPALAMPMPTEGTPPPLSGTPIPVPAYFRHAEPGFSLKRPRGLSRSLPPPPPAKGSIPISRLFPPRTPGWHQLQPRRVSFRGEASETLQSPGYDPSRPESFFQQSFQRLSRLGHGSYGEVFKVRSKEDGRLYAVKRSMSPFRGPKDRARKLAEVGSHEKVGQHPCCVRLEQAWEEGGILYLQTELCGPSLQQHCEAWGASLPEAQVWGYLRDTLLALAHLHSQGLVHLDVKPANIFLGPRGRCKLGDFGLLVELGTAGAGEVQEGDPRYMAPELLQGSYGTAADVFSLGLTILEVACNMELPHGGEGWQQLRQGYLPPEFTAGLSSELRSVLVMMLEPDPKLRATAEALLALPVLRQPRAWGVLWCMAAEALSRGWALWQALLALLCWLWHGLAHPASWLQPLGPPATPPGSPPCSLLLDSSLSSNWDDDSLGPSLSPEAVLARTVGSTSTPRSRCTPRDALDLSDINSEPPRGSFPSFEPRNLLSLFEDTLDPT

Compound | IC50
Cc1ccnc(-c2cc(-c3c(C)ccc4[nH]ncc34)c(N)c(C(N)=O)n2)c1 [Compound 269] | 18 nM
COc1cccc(-c2cccc(-c3cc(-c4c(C)ccc5[nH]ncc45)c(N)c(C(N)=O)n3)n2)c1 [Compound 340, 5-amino-6′-(3-methoxyphenyl)-4-(5-methyl-1H-indazol-4-yl)-[2,2′-bipyridine]-6-carboxamide] | > 2000 nM
Cc1ccc(O)cc1-c1nc(C2CCC(F)(F)CC2)nc(C(N)=O)c1N [Compound 41, 5-amino-2-(4,4-difluorocyclohexyl)-6-(5-hydroxy-2-methylphenyl)pyrimidine-4-carboxamide] | 827 nM
Cc1ccc2[nH]ncc2c1-c1nc(-c2cccc(C(=O)N(C)C)c2)nc(C(N)=O)c1N [Compound 284] | 38 nM
Cc1ccc2[nH]ncc2c1-c1cc(-c2cccc(OC[C@H](N)C(C)C)n2)nc(C(N)=O)c1N (atropisomer, axis not shown) [Compound 345] | 1020 nM
Cc1ccc(O)cc1-c1nc(-c2cc(F)cc(F)c2)nc(C(N)=O)c1N [Compound 22] | 18 nM
Cc1ccc2[nH]ncc2c1-c1cc(-c2cc[nH]c(=O)c2)nc(C(N)=O)c1N [Compound 237] | 48 nM
Cc1ccc2[nH]ncc2c1-c1cc(-c2ccnc(N3CCC(O)(c4ccccc4)CC3)n2)nc(C(N)=O)c1N [Compound 349] | 138 nM
Cc1ccc2[nH]ncc2c1-c1nc(-c2cccc(Cl)c2)nc(C(N)=O)c1N [Compound 111] | 44 nM
Cc1ccc2[nH]ncc2c1-c1cc(-c2cccnc2)nc(C(N)=O)c1N [Compound 97] | 54 nM
Cc1ccc2[nH]ncc2c1-c1cc(-c2ccnc(N[C@@H](CO)Cc3ccccc3)n2)nc(C(N)=O)c1N (atropisomer, axis not shown) [Compound 383] | 2 nM
Cc1ccc2[nH]ncc2c1-c1nc(-c2cccc(C(=O)N3CCOCC3)c2)nc(C(N)=O)c1N [Compound 289] | 18 nM
Cc1ccc2[nH]ncc2c1-c1cc(-c2ccnc(N[C@H]3c4ccccc4C[C@@H]3O)n2)nc(C(N)=O)c1N (atropisomer, axis not shown) [Compound 372] | > 2000 nM
Cc1ccc2[nH]ncc2c1-c1nc(-c2cccc(CNc3ncc(C(F)(F)F)cn3)c2)nc(C(N)=O)c1N [Compound 296] | 213 nM
Cc1ccc2[nH]ncc2c1-c1cc(-c2ccnc(OCc3nc4ccccc4n3C)n2)nc(C(N)=O)c1N [Compound 336] | 65 nM
Cc1ccc2n[nH]cc2c1-c1cc(-c2cccc(OC[C@@H](N)c3ccccc3)n2)nc(C(N)=O)c1N [Compound 277] | 162 nM
Cc1ccc(O)c(C)c1-c1cc(C(=O)O)nc(C(N)=O)c1N [Compound 53, 5-amino-6-carbamoyl-4-(3-hydroxy-2,6-dimethylphenyl)picolinic acid] | 1830 nM
Cc1csc(-c2nc(C(N)=O)c(N)c(-c3c(C)ccc4[nH]ncc34)n2)c1 [Compound 148] | 69 nM
Cc1cc(-c2nc(C(N)=O)c(N)c(-c3c(C)ccc4[nH]ncc34)n2)ccc1C#N [Compound 151] | 27 nM
Cc1ccc2[nH]ncc2c1-c1nc(-c2ccc(CN3CCOCC3)s2)nc(C(N)=O)c1N [Compound 156] | 17 nM
Cc1ccc2[nH]ncc2c1-c1nc(-c2cccc(CNc3ncccn3)c2)nc(C(N)=O)c1N [Compound 295] | 27 nM
CC(=O)Nc1cccc(-c2nc(C(N)=O)c(N)c(-c3c(C)ccc4[nH]ncc34)n2)c1 [Compound 298] | 15 nM
CO[C@@H](COc1cccc(-c2cc(-c3c(C)ccc4[nH]ncc34)c(N)c(C(N)=O)n2)c1)c1ccccc1 [Compound 351] | 149 nM
Cc1ccc2[nH]ncc2c1-c1cc(-c2ccnc(N[C@@H]3c4ccccc4C[C@@H]3O)n2)nc(C(N)=O)c1N (atropisomer, axis not shown) [Compound 384] | 4 nM
Cc1ccc(O)cc1-c1c(N)c(C(N)=O)nc2ccccc12 [Compound 10, 3-amino-4-(5-hydroxy-2-methylphenyl)quinoline-2-carboxamide] | 202 nM
Cc1ccc2[nH]ncc2c1-c1nc(-c2cccc(Oc3ccc(F)cc3)c2)nc(C(N)=O)c1N [Compound 287] | 62 nM
Cc1ccc2[nH]ncc2c1-c1cc(-c2cccc(N3CCSCC3)n2)nc(C(N)=O)c1N [Compound 187] | 78 nM
Cc1ccc(-c2nc(C(N)=O)c(N)c(-c3cc(O)ccc3C)n2)cc1 [Compound 20] | 105 nM
Cc1ccc2[nH]ncc2c1-c1cc(-c2cn(C)cn2)nc(C(N)=O)c1N [Compound 172] | 53 nM
Cc1ccc2[nH]ncc2c1-c1nc(-c2cccc3c2NCC3)nc(C(N)=O)c1N [Compound 386] | 29 nM

Further lines, results first:

IC50 | Compound
364 nM | Cc1ccc2[nH]ncc2c1-c1cc(-c2cccc(OCC(F)(F)F)c2)nc(C(N)=O)c1N [Compound 175]
4 nM | Cc1ccc2[nH]ncc2c1-c1cc(-c2ccnc(N3CCC(O)CC3)n2)nc(C(N)=O)c1N [Compound 359]
18 nM | Cc1ccc2[nH]ncc2c1-c1nc(-c2cccc3nc[nH]c23)nc(C(N)=O)c1N [Compound 378]
30 nM | Cc1ccc2[nH]ncc2c1-c1nc(-c2ccnc(N3CCN(C)CC3)c2)nc(C(N)=O)c1N [Compound 154]
88 nM | Cc1ccc2[nH]ncc2c1-c1cc(-c2ccnc(OCCc3ncccn3)n2)nc(C(N)=O)c1N (atropisomer, axis not shown) [Compound 330]
4 nM | Cc1ccc2[nH]ncc2c1-c1nc(-c2ccccc2NC(=O)C(C)C)nc(C(N)=O)c1N [Compound 407]
98 nM | Cc1ccc2[nH]ncc2c1-c1cc(-c2ccnc(NCC3(O)COC3)n2)nc(C(N)=O)c1N (atropisomer, axis not shown) [Compound 394]
54 nM | CCC(Nc1cccc(-c2cc(-c3c(C)ccc4[nH]ncc34)c(N)c(C(N)=O)n2)n1)c1ccccc1 (stereo not drawn) [Compound 331, 5-amino-4-(5-methyl-1H-indazol-4-yl)-6′-((1-phenylpropyl)amino)-[2,2′-bipyridine]-6-carboxamide]
7 nM | Cc1ccc2[nH]ncc2c1-c1cc(-c2cccc(OCC(N)C(F)(F)F)n2)nc(C(N)=O)c1N (stereo not drawn) [Compound 355]
230 nM | Cc1ccc2[nH]ncc2c1-c1cc(-c2cnc(C(C)(C)O)s2)nc(C(N)=O)c1N [Compound 218]
59 nM | Cc1ccc2[nH]ncc2c1-c1nc(-c2cccnc2)nc(C(N)=O)c1N [Compound 99]
16 nM | CCOC(=O)COc1cccc(-c2nc(C(N)=O)c(N)c(-c3c(C)ccc4[nH]ncc34)n2)c1 [Compound 293]
15 nM | Cc1ccc2[nH]ncc2c1-c1cc(-c2ccnc(N[C@H]3c4ccccc4C[C@H]3O)n2)nc(C(N)=O)c1N (atropisomer, axis not shown) [Compound 376]
461 nM | Cc1ccc2[nH]ncc2c1-c1cc(-c2ccnc(N3Cc4ccccc4C[C@H]3CO)n2)nc(C(N)=O)c1N (atropisomer, axis not shown) [Compound 392]
94 nM | Cc1ccc2[nH]ncc2c1-c1nc(-c2ccc(N3CCOCC3)cc2)nc(C(N)=O)c1N [Compound 103]
27 nM | Cc1ccc2[nH]ncc2c1-c1nc(-c2ccnc(C(F)(F)F)c2)nc(C(N)=O)c1N [Compound 153]
584 nM | Cc1ccc2[nH]ncc2c1-c1cc(-c2cccc(OCc3nccc(N4CCOCC4)n3)n2)nc(C(N)=O)c1N [Compound 259]
2 nM | Cc1ccc2[nH]ncc2c1-c1cc(-c2ccnc(N[C@@H](CO)c3ccccc3)n2)nc(C(N)=O)c1N (atropisomer, axis not shown) [Compound 362]
26 nM | Cc1ccc2[nH]ncc2c1-c1cc(-c2cccc(OC(C)c3ccccn3)n2)nc(C(N)=O)c1N (stereo not drawn) [Compound 252]
57 nM | CC(=O)c1ccc(-c2nc(C(N)=O)c(N)c(-c3c(C)ccc4[nH]ncc34)n2)cc1 [Compound 128]
35 nM | CCC(CC)COc1cccc(-c2cc(-c3c(C)ccc4[nH]ncc34)c(N)c(C(N)=O)n2)n1 [Compound 350]
54 nM | Cc1ccc2[nH]ncc2c1-c1nc(-c2cccc(N3CCCC3)c2)nc(C(N)=O)c1N [Compound 142]
9 nM | Cc1ccc2[nH]ncc2c1-c1cc(-c2cccc(OC[C@H]3CCCO3)n2)nc(C(N)=O)c1N [Compound 356]
869 nM | Cc1ccc2[nH]ncc2c1-c1cc(-c2ccnc(N[C@H](CO)Cc3ccccc3)n2)nc(C(N)=O)c1N (atropisomer, axis not shown) [Compound 370]
217 nM | Cc1ccc2[nH]ncc2c1-c1nc(-c2ccc(CN3CCOCC3)cc2)nc(C(N)=O)c1N [Compound 147]
1880 nM | Cc1ccc2[nH]ncc2c1-c1cc(-c2cccc(OCc3ncccn3)n2)nc(C(N)=O)c1N (atropisomer, axis not shown) [Compound 234]
54 nM | Cc1cc(-c2nc(C(N)=O)c(N)c(-c3cc(O)ccc3C)n2)cc(C)n1 [Compound 11]
23 nM | COc1cccc(-c2nc(C(N)=O)c(N)c(-c3c(C)ccc4[nH]ncc34)n2)c1 [Compound 141]
202 nM | Cc1ccc(O)cc1-c1nc(-c2cccnc2)nc(C(N)=O)c1N [Compound 21]
27 nM | Cc1ccc2[nH]ncc2c1-c1nc(-c2cccc(C=O)c2)nc(C(N)=O)c1N [Compound 304]
